System: E. multilocularis metacestodes
Experiment: PGI-assay: drug-induced damage on in vitro cultured metacestodes (Pathogen Box screening cascade and EC50)
Format: cell-based, Echinococcus multilocularis
Conditions: for PGI release, % of the Tx-100 control, 5d / PGI release, % of the Tx-100 control, 12d: 10 µM, singlets; for PGI release, % of the Tx-100 control, 5d / PGI release, % of Tx-100 control, average, 5d: 5 days of incubation; for PGI release, % of the Tx-100 control, 12d / PGI release, % of Tx-100 control, average, 12d: 12 days of incubation
[1] = confirmatory screening at 10 µM in triplicates, values as % of Tx-100 control

| SMILES | PGI release, % of the Tx-100 control, 5d [%] | PGI release, % of the Tx-100 control, 12d [%] | further results |
| --- | --- | --- | --- |
| Brc1cncc(-c2cc(NCCCn3ccnc3)nc(-c3ccccc3)n2)c1 [MMV661713] | -3.38 | -0.86 | – |
| Clc1cccc(C(c2ccc(CN3CCNCC3)cc2)n2ccnc2)c1 (stereo not shown) [MMV663250] | 0.31 | -0.31 | – |
| O=C(NCCN1CCCC1)c1cc(NCCCCN2CCC(F)(F)CC2)nc2ccc(Cl)cc12 [MMV667494] | -0.60 | -1.11 | – |
| Nc1ncc(-c2ccc(C(F)(F)F)nc2)cc1-c1ccc(C(F)(F)F)nc1 [MMV668727] | -0.66 | -0.51 | – |
| COc1ccc(OC)c(NCc2ccc3nc(N)nc(N)c3c2Cl)c1 [MMV675968] | -0.10 | 8.05 | – |
| CC(C)(C)c1ccc(N[C@@H]2CCCC[C@H]2NC(=O)c2ccco2)cc1 [MMV675969] | 1.02 | -2.49 | – |
| COc1ccc(-c2nn(C(C)C)c3ncnc(N)c23)cc1OC [MMV675993] | -5.16 | -3.42 | – |
| Clc1ccc(-n2cc(COc3ccnc4ccccc34)nn2)cc1 [MMV675994] | -6.67 | 46.84 | PGI release, % of Tx-100 control, average, 5d (1 µM, triplicates): -4.24%; PGI release, % of Tx-100 control, average, 12d (1 µM, triplicates): -12.79%; activity in the screen at 10 μM (confirmed in triplicates, >20% relative PGI release) (10 μM, 5 and 12 days): active; PGI release, % of Tx-100 control, average, 5d [1]: 26.02%; PGI release, % of Tx-100 control, average, 12d [1]: 73.87% |
| COc1ccc(N(CCc2cccc(C)n2)C(C)=O)cc1 [MMV675995] | 1.72 | 1.78 | – |
| COc1ccc(N(CCc2cccc(C)n2)C(=O)C2CCCCC2)cc1 [MMV675996] | 0.13 | -0.16 | – |
| N#CCN(CCCCN1CCN(c2ccc(F)cc2)CC1)C(=O)OCc1ccccc1 [MMV675997] | -0.27 | -1.46 | – |
| COc1ccc(C(=N)N)cc1-c1cn(-c2ccc(C(=N)N)cc2)nn1 [MMV675998] | -0.22 | 0.24 | – |
| O=C(Nc1c(O)cccc1-c1nc2c(C(=O)O)cccc2o1)c1cc(-c2ccccc2)on1 [MMV676008] | -0.73 | -0.73 | – |
| Clc1ccc(Cl)c(CO[C@H]2CCCC[C@@H]2n2ccnc2)c1 [MMV676048] | 1.62 | 0.30 | – |
| CS(=O)(=O)N1CCC(Cn2nc(Cc3cccc4ccccc34)c3c(N)ncnc32)CC1 [MMV676050] | 0.49 | 0.36 | – |
| COc1cc(NC(=O)Cc2nn(C)c(=O)c3ccccc23)ccc1Cl [MMV676053] | -2.85 | -1.21 | – |
| CC(C)(C)OC(=O)N1CCN(c2cc(-c3ccc(Oc4ccccc4)cc3)n[nH]2)CC1 [MMV676057] | -3.83 | 2.21 | – |
| CCCCc1ccc(NC(=O)Nc2ccc(O[C@H]3CCCC[C@@H]3N(C)c3ccccc3)c(F)c2)cc1 [MMV676063] | 2.73 | 76.51 | PGI release, % of Tx-100 control, average, 5d [1]: -1.39%; PGI release, % of Tx-100 control, average, 12d [1]: -1.33% |
| CC(=O)N(CCN(C(=O)c1ccc(F)cc1)c1ccccc1)c1ccccc1 [MMV676064] | -0.20 | 0.0545 | – |
| Clc1cccc(CO[C@H]2CCc3ccccc3[C@@H]2n2ccnn2)c1 [MMV676159] | -0.04 | -0.65 | – |
| c1ccc(Oc2ccc(-c3cc(CN4CCOCC4)[nH]n3)cc2)cc1 [MMV676161] | -0.68 | -1.33 | – |
| O=C(Nc1ccccc1-c1nc2c(C(=O)O)cccc2o1)c1ccccc1 [MMV676162] | 0.15 | 0.13 | – |
| Nc1ncnc2c1c(Cc1cccc3ccccc13)nn2CC1CCNCC1 [MMV676182] | 0.88 | -0.92 | – |
| COC(=O)c1cccc2oc(-c3cccc(OC)c3NC(=O)c3cc(-c4ccccc4)on3)nc12 [MMV676186] | 1.00 | 13.03 | – |
| CC(C)C(Oc1cccc2ccccc12)C(=O)O (stereo not shown) [MMV676191] | -0.44 | -4.34 | – |
| O=C(c1ccc(F)cc1)N(CCNc1ccccc1)c1ccccc1 [MMV676204] | 0.89 | 22.26 | PGI release, % of Tx-100 control, average, 5d [1]: -0.89%; PGI release, % of Tx-100 control, average, 12d [1]: -0.80% |
| CN1CCN(c2nccc3nc(-c4ccc(F)c(F)c4)[nH]c23)CC1 [MMV676260] | 0.28 | 0.56 | – |
| C[C@H](C(N)=O)N1CCCC[C@H]1c1ccc(OCc2cccc(F)c2)cc1 [MMV676269] | 1.52 | 1.07 | – |

| SMILES | PGI release, % of the Tx-100 control, 5d [%] | PGI release, % of the Tx-100 control, 12d [%] | further results |
| --- | --- | --- | --- |
| C[C@H](C(N)=O)N1CCCC[C@@H]1c1ccc(OCc2cccc(F)c2)cc1 [MMV676270] | -0.98 | -0.91 | – |
| Cc1c[nH]c(CCNC(=O)c2cc(-c3ccc(Cl)cc3)cs2)n1 [MMV676350] | -0.41 | 1.56 | – |
| Nc1ncc(Br)cc1-c1nc2cc(Cl)cnc2[nH]1 [MMV676358] | 0.16 | -0.55 | – |
| Brc1c(-c2ccc3c(c2)OCO3)nc2ncccn12 [MMV676377] | 0.59 | -0.19 | – |
| COc1cccc(OCC(=O)c2ccc(Br)cc2)c1 [MMV676379] | -3.68 | -3.36 | – |
| CC(=O)Nc1ccc(NC(=O)c2cc(-c3cc(Cl)ccc3O)n[nH]2)cc1 [MMV676380] | -0.62 | -0.39 | – |
| Cn1ncc2c(N3CCOCC3)nc(NCCc3c[nH]c4ccccc34)nc21 [MMV676382] | 0.80 | -0.14 | – |
| CCC(Sc1nc2ccccc2o1)C(=O)Nc1nccs1 (stereo not shown) [MMV676383] | 0.61 | 4.85 | – |
| N#Cc1nc(-c2ccccc2F)oc1NCCc1ccccc1 [MMV676384] | 0.0223 | -0.18 | – |
| Cc1cccc(Cn2ccc(NC(=O)c3ccc4c(c3)OCO4)n2)c1 [MMV676386] | 0.18 | -0.91 | – |
| COc1cccc(-n2nnnc2S(=O)(=O)Cc2ccccc2)c1 [MMV676388] | 12.00 | 14.67 | – |
| O=C(c1n[nH]c2c1CCCC2)N1CCN(Cc2ccc3c(c2)OCO3)CC1 [MMV676389] | 1.07 | 3.62 | – |
| O=C(Nc1cccnc1)c1c(O)c2cccc3c2n(c1=O)CC3 [MMV676395] | -2.29 | 0.06 | – |
| CCS(=O)(=O)N(Cc1ccco1)Cc1cc2ccc(C)cc2[nH]c1=O [MMV676398] | -0.33 | 4.91 | – |
| c1coc(CNc2nc(N3CCCCC3)nc3ccccc23)c1 [MMV676401] | -3.33 | 41.40 | PGI release, % of Tx-100 control, average, 5d [1]: -0.0357%; PGI release, % of Tx-100 control, average, 12d [1]: -0.23% |
| CC(C)n1ncc2c(C(=O)NCC(c3cccs3)N3CCOCC3)cc(-c3ccccc3)nc21 (stereo not shown) [MMV676406] | 0.95 | 2.38 | – |
| O=C(COc1cccc(F)c1)Nc1nc(-c2ccccn2)cs1 [MMV676409] | -3.57 | -0.58 | – |
| CC(Oc1ccccc1)C(=O)Nc1nc(-c2ccccn2)cs1 (stereo not shown) [MMV676411] | 0.12 | 0.11 | – |
| N#Cc1nc(-c2ccccc2)oc1S(=O)(=O)c1ccc(Cl)cc1 [MMV676412] | 0.33 | 0.62 | – |
| Cc1ccc(NC(=O)CC2COc3ccccc3O2)cc1Cl (stereo not shown) [MMV676431] | -2.82 | 0.24 | – |
| Cc1ccc2nc(Cl)c(CNCc3cccs3)cc2c1 [MMV676439] | -0.82 | 3.19 | – |
| CC(C)c1ncc(-c2ccncc2)c(C2CCC(CNC(=O)c3cccnc3)CC2)n1 (stereo not shown) [MMV676442] | -0.58 | 4.83 | – |
| O=C(NC1CCCCC1)N1CCN(Cc2ccc3c(c2)OCO3)CC1 [MMV676444] | -3.25 | 1.66 | – |
| CCCn1c(CNc2ccccc2O)nc2ccccc21 [MMV676445] | -1.26 | 2.30 | – |
| CCc1nc2ccccc2n1CC(O)COc1cc(C)ccc1Cl (stereo not shown) [MMV676449] | 0.81 | 2.81 | – |
| CCOC(=O)c1cc(-c2csc(Nc3c(C)cc(C)cc3C)n2)on1 [MMV676461] | 0.19 | -0.25 | – |
| NC(CC(=O)c1ccc(Cl)cc1Cl)C(Cl)(Cl)Cl (stereo not shown) [MMV676468] | -0.27 | -0.82 | – |
